How the values were obtained:
RECK gene [1] = assay: RECK expression in mouse primary hepatocytes, real-time PCR; format: cell-based; conditions: 1 μM; for RECK expression, fold induction relative to t=0: normalized to GAPDH, p<0.01
Description: Mouse primary hepatocytes were plated at 1.5×10^5 cells per well in 24-well plates and cultured in Williams E medium supplemented with 15 mM HEPES pH 7.4, 1% insulin-transferrin-selenium supplement, 1 nM dexamethasone, 50 U/ml penicillin, and 50 μg/ml streptomycin. Cells were treated with DMSO vehicle or with the FXR agonists, Compound A or Compound B ((E)-3-(2-chloro-4-((3-(2,6-dichlorophenyl)-5-isopropylisoxazol-4-yl)methoxy)styryl)benzoic acid). Cells were harvested at various times after treatment and RNA was prepared for real-time PCR analysis.
RECK expression levels were normalized to GAPDH and the mean level of RECK expression at t=0 was defined as 1.0.

RECK gene [2] = assay: RECK expression in liver of male LDLR deficient mice, real-time PCR of liver RNA; format: in vivo, mouse; conditions: Western diet, 30 mg/kg by gavage once a day for 7 days, liver RNA 4 h after final treatment, p<0.01
Description: Male LDLR deficient mice, fed a Western diet, were administered vehicle or 30 mg/kg Compound A [isopropyl 3-(3,4-difluorobenzoyl)-1,1-dimethyl-1,2,3,6-tetrahydroazepino[4,5-b]indole-5-carboxylate] by gavage once a day for 7 days. Four hours after the final treatment, mice were euthanized and real-time PCR analysis of liver RNA was performed.
RECK expression levels were normalized to GAPDH and the mean level of RECK expression in vehicle treated mice was defined as 1.0. Data are presented as the mean ± standard error of the mean (SEM). 6 mice were tested in each group.

RECK gene [3] = assay: Kinetics of induction of RECK expression in liver after a single dose, wildtype and FXR deficient mice; format: in vivo, mouse; conditions: wildtype mice, single dose 30 mg/kg by oral gavage
Description: Wildtype or FXR deficient male and female mice were administered a single dose of vehicle or 30 mg/kg Compound A by oral gavage. Mice were euthanized at various times after treatment and real-time PCR analysis of liver RNA was performed.
RECK expression levels were normalized to GAPDH, and the mean level of RECK expression at t=0 was defined as 1.0. […] The kinetics of induction of RECK expression by Compound A are consistent with direct induction of RECK expression by FXR activation.

RECK gene [4] = assay: RECK expression in human hepatocytes, real-time PCR; format: cell-based; conditions: 1 μM, 24 hours of treatment, p<0.05
Description: Confluent monolayers of human hepatocytes in 24-well plates, cultured in InVitroGRO HI medium, were treated with DMSO vehicle or Compound A. After 24 hours of treatment, the cells were harvested and RNA was prepared for real time PCR analysis.
RECK expression was normalized to GAPDH, and the mean level of RECK expression in DMSO treated cells was defined as 1.0. The data are presented as the mean ± SEM from triplicate determinations.

RECK gene [5] = assay: RECK expression in liver of wildtype, FXR deficient and SHP deficient mice, real-time PCR of liver RNA; format: in vivo, mouse; conditions: 30 mg/kg by gavage once a day for 7 days
Description: Wildtype or FXR deficient mice on the C57B1/6 background and wildtype or SHP deficient mice on the 129 background were fed a standard chow diet. Mice were administered vehicle or 30 mg/kg Compound A by gavage once a day for 7 days. Four hours after the final treatment, mice were euthanized and real-time PCR analysis of liver RNA was performed.
RECK expression levels were normalized to GAPDH and the mean level of RECK expression in vehicle treated female C57B1/6 mice was defined as 1.0. Data are presented as the mean ±SEM. 6 mice were tested in each group. […] (p<0.01). […] (p<0.01).

SMILES	Time of peak RECK expression following treatment (RECK gene [1]) [h]	RECK expression, fold induction relative to t=0 (RECK gene [1])	RECK expression (normalized to GAPDH, vehicle = 1.0) (RECK gene [2])	RECK expression, fold induction relative to t=0 (RECK gene [3]; liver RNA)	Time after administration at which induction of RECK expression was observed (RECK gene [3]; expression continued to increase at later time points, p<0.01) [h]	RECK expression (normalized to GAPDH, DMSO = 1.0) (RECK gene [4])	RECK expression (normalized to GAPDH) (RECK gene [5]; FXR deficient mice (C57B1/6 background))	RECK expression (normalized to GAPDH) (RECK gene [5]; SHP deficient mice (129 background), p=0.02 in males, p<0.01 in females)	RECK expression (normalized to GAPDH) (RECK gene [5]; male and female wildtype C57B1/6 mice, p<0.01)	Induction of RECK expression, female compared to male (RECK gene [5]; wildtype 129 mice, p<0.01)	Induction of RECK expression, female compared to male (RECK gene [5]; wildtype C57B1/6 mice)
CC(C)OC(=O)C1=CN(C(=O)c2ccc(F)c(F)c2)CC(C)(C)c2c1[nH]c1ccccc21 [Compound A, isopropyl 3-(3,4-difluorobenzoyl)-1,1-dimethyl-1,2,3,6-tetrahydroazepino[4,5-b]indole-5-carboxylate]	4	induced RECK expression	RECK expression is induced	induced RECK expression	≤ 2	induced expression of the RECK gene	failed to induce RECK expression	induction of RECK expression was observed	induced expression of the RECK gene	enhanced compared to male 129 mice	Enhanced induction of RECK expression was observed in female compared to male
CC(C)c1onc(-c2c(Cl)cccc2Cl)c1COc1ccc(/C=C/c2cccc(C(=O)O)c2)c(Cl)c1 [Compound B, (E)-3-(2-chloro-4-((3-(2,6-dichlorophenyl)-5-isopropylisoxazol-4-yl)methoxy)styryl)benzoic acid, reference compound]	4	induced RECK expression									

From patent US20080299118A1, “FXR Agonists for the Treatment of Malignancies” (Wyeth, priority 2007, published 2008)
